Measured values reported in paper PMC8235661, “Photoelectric Dye, NK-5962, as a Potential Drug for Preventing Retinal Neurons from Apoptosis: Pharmacokinetic Studies Based on Review of the Evidence” (Life, 2021).

Columns and labels:
[1] = Reactive oxygen species (ROS) assay under simulated sunlight; format: physicochemical; conditions: for Reactive Oxygen Species Generation Singlet oxygen / Reactive Oxygen Species Generation Superoxide: 200 µM, simulated sunlight 1 h, mean ± standard deviation (n = 3)
Experimental: The ROS assay was designed to detect both singlet oxygen and superoxide generated from photo-irradiated chemicals. Briefly, singlet oxygen was measured in aqueous solution by spectrophotometrically monitoring the bleaching of p-nitrosodimethylaniline at 440 nm using imidazole as a selective acceptor of singlet oxygen. Samples containing the tested chemical (20 or 200 μM), p-nitrosodimethylaniline (50 μM), and imidazole (50 μM) in 20 mM sodium phosphate buffer (pH 7.4) were mixed in a tube. Each sample in 200 μL was transferred into a well of a plastic 96-well plate (clear, untreated, and flat-bottomed) and checked for precipitation under a microscope with an objective lens (×100) before light exposure. The plate was subjected to a measurement of absorbance at 440 nm using a microplate spectrophotometer. The plate was fixed in the quartz reaction container with a quartz cover and then irradiated with the simulated sunlight (ultraviolet A/B and visible light, 250 W/m^2, Suntest CPS plus, Atlas Material Testing Technology, Mount Prospect, IL, USA) for 1 h. After agitation on a plate shaker, the UV absorbance at 440 nm was measured. For the determination of superoxide, samples containing the test chemical (20 or 200 μM) and nitroblue tetrazolium (50 μM) in 20 mM sodium phosphate buffer were irradiated with the simulated sunlight for 1 h and the reduction in nitroblue tetrazolium was measured by the increase in absorbance at 560 nm in the same manner as the singlet oxygen determination. Experiments were performed in triplicate wells in three independent runs. As the final concentration, 200 μM test chemical solutions should be subjected to the ROS assay. However, when precipitation could be observed at 200 μM under the optical microscope, additional experiments should be performed under appropriate dilution (20, 50, or 100 μM).

[2] = PAMPA (parallel artificial membrane permeability assay); format: in vitro ADME
Experimental: In order to determine the passive membrane diffusion rates, the Corning Gentest Pre-coated PAMPA Plate System was used in the PAMPA test. […] The acceptor plate was then placed on top of the donor plate and incubated at 37 °C without agitation for 4 h. At the end of the incubation, the plates were separated and the solutions from each well of both the acceptor plate and the donor plate were transferred to 96-well plates and mixed with acetonitrile. The final concentrations of compound in both the donor wells and acceptor wells, as well as the concentrations of the initial donor solutions, were analyzed by LC-MS/MS. The permeability of the compound was calculated according to the previous report.

[3] = design: method as in PMID 18185985; conditions: cited from earlier work

| SMILES | Reactive Oxygen Species Generation Singlet oxygen [1] | Reactive Oxygen Species Generation Superoxide [1] | also measured |
| --- | --- | --- | --- |
| CCN1C=C\C(=C/C=C(\C=C/c2cc[n+](CC)c3ccccc23)c2cc[n+](CC)c3ccccc23)c2ccccc21.[I-].[I-] [NK-4, 1-ethyl-4-[(1Z,3E,5E)-1-(1-ethylquinolin-1-ium-4-yl)-5-(1-ethylquinolin-4-ylidene)penta-1,3-dien-3-yl]quinolin-1-ium;iodide] | – | – | phototoxicity conclusion from ROS assay [1]: less phototoxic |
| C=C[C@H]1C[N@@]2CC[C@H]1C[C@H]2[C@H](O)c1ccnc2ccc(OC)cc12 [Quinine] | 602 ± 7 ΔA440 × 1000 | 348 ± 12 ΔA560 × 1000 | – |
| COc1cc(O)c(C(=O)c2ccccc2)cc1S(=O)(=O)O [Sulisobenzone] | Not detected | Not detected | – |
| Cc1cc(=O)n(-c2ccccc2)n1C [antipyrine] | – | – | Papp at 4 h, 100 μM ([2]; PAMPA, read-out: PAMPA permeability of reference compound): 11 ×10⁻⁶ cm/s |
| COCCc1ccc(OCC(O)CNC(C)C)cc1 (centres unmarked) [metoprolol] | – | – | PAMPA permeability of reference compound ([2]; reference compound at 500 μM): 1.5 ×10⁻⁶ cm/s |
| O=C(O)c1cc(/N=N/c2ccc(S(=O)(=O)Nc3ccccn3)cc2)ccc1O [sulfasarazine] | – | – | gastrointestinal absorption in human [3]: 13% |
